Results on one compound are retold here after patent publication US6858414B2, “Multistage process for the preparation of highly pure deferoxamine mesylate salt” (Biogal Gyógyszergyár Rt., priority 1999, dated 2005).

The conditions of series [1]: association constant; cited from earlier work.
The conditions of series [2]: association constant; cited from earlier work. The source holds these as a separate data set.
For series [3] the following is noted: cited from earlier work.
The subject of series [4] is secondary iron overload from multiple transfusions. The conditions noted are these: cited from earlier work.
Series [5] in a line: stability as solid and in concentrated solution. In kind it is physicochemical.

On to `CC(=O)N(O)CCCCCNC(=O)CCC(=O)N(O)CCCCCNC(=O)CCC(=O)N(O)CCCCCN` [Deferoxamine B, N′-[5-[[4-[[5-(acetylhydroxyamino)pentyl]amino]-1,4-dioxobutyl]hydroxyamino]pentyl]-N-(5-aminopentyl)-N-hydroxy-butanediamide], for which the “affinity for ferric iron (Ka)” value in series [1] was 10^31. Also, the “affinity for calcium (Ka)” value in series [2] is 10^2. The oral absorption entry in series [3] was “not well-absorbed orally”. Moreover, in series [4] (long term therapy), the “accumulation of hepatic iron” value is “slows accumulation of hepatic iron” and the “progression of hepatic fibrosis” value is “retards or eliminates progression of hepatic fibrosis”. Further, the iron excretion entry in series [4] (patients with secondary iron overload from multiple transfusions) is given as “promotes iron excretion”. Moreover, the stability in solution entry in series [5] (concentrated solution, on evaporation) is “prone to decomposition in concentrated solution”. For the same compound, the stability as solid result in series [5] (solid) is reported as “reasonably stable solid”.
